From the supplement of paper PMC4858399
Where a name gives a salt, the structure may show the parent alone.

Assays:
Details in all cases: exposure time 48 h
[1] = tested on: Caenorhabditis elegans N2; test: lowest effective concentration for larval growth inhibition (size below effect threshold); higher = less potent
Procedure, shortened: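 In 96-well plates, 50 C. elegans N2 L1 larvae per well were cultured at 20°C for 48 h in K-medium with killed bacteria and 1% DMSO, plus the chemical at 0.5, 1, 5, 10, 50, 100 or 200 µM. Size was measured as per-worm extinction on a Biosort and log-transformed into well means. Taking the first dose where the plate-adjusted mean size sits under 5.665 and stays there at higher doses gives the lowest effective concentration.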

[2] = tested on: Caenorhabditis elegans N2; test: AC50 for larval growth inhibition (Hill fit); higher = less potent
Procedure, shortened: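 After 48 h at 20°C in K-medium with killed OP50, 1% DMSO and 0.5–200 µM chemical, synchronised C. elegans N2 L1 larvae (50 per well, 96-well plates) were sized individually as extinction on a COPAS Biosort. These values were log-transformed and averaged per well, and wells with fewer than 10 worms were excluded. The AC50 was derived from a constrained Hill fit by weighted genetic-algorithm regression, and out-of-range values are censored.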

[3] = tested on: Caenorhabditis elegans N2; test: mean nematode size ln(EXT) after 48 h, plate-adjusted (DMSO control set to 6) (ln(EXT), control-adjusted); higher = larger nematodes / less growth inhibition
Procedure, shortened: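 C. elegans N2 larvae, synchronised at L1, grew for 48 h at 20°C in K-medium with killed OP50, 1% DMSO and 0.5–200 µM chemical. Mean size per well was derived from natural-logged Biosort extinction after a growth model removed debris. Adjustment across plates involved subtracting the vehicle control mean and adding 6.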

Row | SMILES | lowest effective concentration [1] [µM] | AC50 for larval growth inhibition [2] [µM] | mean nematode size ln(EXT) (ln) ([3]; 0.5 µM) | mean nematode size ln(EXT) (ln) ([3]; 1 µM) | mean nematode size ln(EXT) (ln) ([3]; 5 µM) | mean nematode size ln(EXT) (ln) ([3]; 10 µM) | mean nematode size ln(EXT) (ln) ([3]; 50 µM) | mean nematode size ln(EXT) (ln) ([3]; 100 µM) | mean nematode size ln(EXT) (ln) ([3]; 200 µM)
1 | C=CCCCCCCCCC(=O)O [10-Undecenoic acid] | 200 | > 200 | 5.77 | 6 | 5.9 | 5.88 | 5.76 | 5.8 | 5.62
2 | O=C1O[C@H]([C@@H](O)CO)C([O-])=C1O.[Na+] [(+)-Sodium L-ascorbate] | 50 | 132 | 5.84 | 5.88 | 5.78 | 5.85 | 5.29 | 5.05 | 3.96
3 | CN1C(=O)CC[C@H]1c1cccnc1 [(-)-Cotinine] | 200 | > 200 | 5.86 | 5.93 | 5.88 | 5.82 | 5.9 | 5.87 | 5.65
4 | C/C=C/c1ccc(OC)cc1 [(E)-Anethole] | 200 | > 200 | 6.06 | 5.98 | 6.01 | 6.06 | 5.97 | 5.96 | 5.49
5 | Cc1nn(C)c(Oc2ccccc2)c1C=NOCc1ccc(C(=O)OC(C)(C)C)cc1 [(Z,E)-Fenpyroximate] | ≤ 0.5 | < 0.5 | 4.99 | 4.67 | 4.2 | 4.2 | 4.09 | 4.05 | 3.39
6 | CC[C@H](C)[C@H]1O[C@]2(C=C[C@@H]1C)C[C@@H]1C[C@@H](C/C=C(\C)[C@@H](O[C@H]3C[C@H](OC)[C@@H](O[C@H]4C[C@H](OC)[C@@H](O)[C@H](C)O4)[C@H](C)O3)[C@@H](C)/C=C/C=C3\CO[C@@H]4[C@H](O)C(C)=C[C@@H](C(=O)O1)[C@]34O)O2.CO[C@H]1C[C@H](O[C@H]2[C@H](C)O[C@@H](O[C@@H]3/C(C)=C/C[C@@H]4C[C@@H](C[C@]5(C=C[C@H](C)[C@@H](C(C)C)O5)O4)OC(=O)[C@@H]4C=C(C)[C@@H](O)[C@H]5OC/C(=C\C=C\[C@@H]3C)[C@]54O)C[C@@H]2OC)O[C@@H](C)[C@@H]1O [Abamectin] | ≤ 0.5 | < 0.5 | 3.68 | 3.31 | 3.37 | 3.26 | 3.38 | 3.35 | 3.24
7 | c1cc2c3c(cccc3c1)CC2 [Acenaphthene] | 200 | > 200 | 6.14 | 5.74 | 6.03 | 6.08 | 5.6 | 5.77 | 5.37
8 | C1=Cc2cccc3cccc1c23 [Acenaphthylene] | 200 | > 200 | 5.93 | 5.96 | 5.94 | 5.98 | 5.92 | 5.83 | 5.37
9 | CSC(=O)c1cccc2nnsc12 [Acibenzolar-S-Methyl] | 10 | > 200 | 5.65 | 5.73 | 5.67 | 5.6 | 5.37 | 5.36 | 5.36
10 | O=C(O)CCCCC(=O)O [Adipic acid] | 200 | > 200 | 5.82 | 5.73 | 5.75 | 5.76 | 5.76 | 5.74 | 5.5
11 | CCc1cccc(CC)c1N(COC)C(=O)CCl [Alachlor] | 200 | > 200 | 6.11 | 6.07 | 6.12 | 6.1 | 5.76 | 5.74 | 5.1
12 | ClC1=C(Cl)C2(Cl)C3C4C=CC(C4)C3C1(Cl)C2(Cl)Cl (stereo unspecified) [Aldrin] | 1 | 3.92 | 5.97 | 5.64 | 4.59 | 3.88 | 3.6 | 3.76 | 3.25
13 | C=CCC1=C(C)C(OC(=O)C2C(C=C(C)C)C2(C)C)CC1=O (stereo unspecified) [Allethrin] | 50 | > 200 | 5.9 | 5.91 | 5.87 | 5.86 | 5.64 | 5.59 | 5.23
14 | Nc1nc(N)c2nc(CNc3ccc(C(=O)NC(CCC(=O)O)C(=O)O)cc3)cnc2n1 (stereo unspecified) [Aminofolic acid, 4-] | 200 | > 200 | 5.89 | 5.91 | 5.86 | 5.86 | 5.82 | 5.82 | 5.39
15 | CCCCc1oc2ccccc2c1C(=O)c1cc(I)c(OCCN(CC)CC)c(I)c1 [Amiodarone HCl] | 50 | 31.9 | 5.9 | 5.96 | 5.82 | 5.72 | 4.41 | 3.85 | 3.8
16 | Cc1ccc(/N=C/N(C)/C=N/c2ccc(C)cc2C)c(C)c1 [Amitraz] | 200 | 200 | 6.02 | 5.93 | 6.14 | 5.97 | 5.95 | 6.57 | 4.72
17 | C[C@]12CCC(=O)C=C1CC[C@@H]1[C@@H]2CC[C@]2(C)C(=O)CC[C@@H]12 [Androstenedione] | 200 | > 200 | 5.85 | 5.91 | 5.86 | 5.99 | 5.89 | 5.84 | 5.66
18 | Clc1nc(Cl)nc(Nc2ccccc2Cl)n1 [Anilazine] | 200 | > 200 | 6.11 | 6.01 | 6.13 | 6.11 | 5.99 | 5.78 | 5
19 | c1ccc2cc3ccccc3cc2c1 [Anthracene] | 5 | 2.12 | 5.97 | 5.76 | 4.34 | 3.78 | 4.06 | 4.36 | 4.12
20 | CCCCN1C(=O)[C@@H]([C@H](O)C2CCCCC2)NC(=O)C12CCN(Cc1ccc(Oc3ccc(C(=O)O)cc3)cc1)CC2 [Aplaviroc hydrochloride] | 200 | > 200 | 5.87 | 5.82 | 5.8 | 5.88 | 5.87 | 5.74 | 5.55
21 | COP(=O)(OC)SCn1c(=O)oc2cc(Cl)cnc21 [Azamethiphos] | 200 | > 200 | 6.07 | 5.94 | 5.91 | 5.93 | 5.88 | 5.75 | 5.57
22 | Cn1cnc([N+](=O)[O-])c1Sc1ncnc2[nH]cnc12 [Azathioprine] | 200 | > 200 | 5.89 | 5.89 | 5.93 | 5.86 | 5.89 | 5.84 | 5.36

Row | SMILES | lowest effective concentration [1] [µM] | AC50 for larval growth inhibition [2] [µM] | mean nematode size ln(EXT) (ln) ([3]; 0.5 µM) | mean nematode size ln(EXT) (ln) ([3]; 1 µM) | mean nematode size ln(EXT) (ln) ([3]; 5 µM) | mean nematode size ln(EXT) (ln) ([3]; 10 µM) | mean nematode size ln(EXT) (ln) ([3]; 50 µM) | mean nematode size ln(EXT) (ln) ([3]; 100 µM) | mean nematode size ln(EXT) (ln) ([3]; 200 µM)
23 | COP(=S)(OC)SCn1nnc2ccccc2c1=O [Azinphos-methyl] | 50 | 170 | 6.09 | 6.12 | 6.04 | 5.95 | 5.61 | 5.49 | 3.9
24 | c1ccc(/N=N/c2ccccc2)cc1 [Azobenzene] | 10 | 91.6 | 5.73 | 5.67 | 5.67 | 5.61 | 5.21 | 4.48 | 3.5
25 | CO/C=C(/C(=O)OC)c1ccccc1Oc1cc(Oc2ccccc2C#N)ncn1 [Azoxystrobin] | 200 | > 200 | 5.84 | 5.87 | 5.93 | 5.9 | 5.8 | 5.85 | 5.5
26 | CNC(=O)Oc1cccc2c1OC(C)(C)O2 [Bendiocarb] | 200 | > 200 | 5.79 | 5.85 | 5.8 | 5.79 | 5.81 | 5.76 | 5.25
27 | CCCCN(CC)c1c([N+](=O)[O-])cc(C(F)(F)F)cc1[N+](=O)[O-] [Benfluralin] | 50 | 175 | 5.76 | 5.73 | 5.82 | 5.7 | 5.31 | 5.04 | 4.16
28 | O=C(Nc1ccccc1)c1ccccc1I [Benodanil] | 5 | 39.3 | 5.99 | 5.98 | 5.62 | 5.66 | 4.16 | 4.19 | 3.37
29 | CCCCNC(=O)n1c(NC(=O)OC)nc2ccccc21 [Benomyl] | 10 | > 200 | 6.03 | 6.07 | 5.68 | 5.58 | 5.36 | 5.4 | 4.35
30 | CC(C)N1C(=O)c2ccccc2NS1(=O)=O [Bentazone] | 200 | > 200 | 6.05 | 5.93 | 5.96 | 6 | 6.01 | 6.05 | 5.55
31 | c1ccc2cc3c(ccc4ccccc43)cc2c1 [Benz[a]anthracene] | 1 | 24.9 | 5.89 | 4.38 | 5.22 | 5.01 | 4.59 | 4.58 | 3.32
32 | c1ccc2c(c1)-c1cccc3c1c-2cc1ccccc13 [Benzo[b]fluoranthene] | ≤ 0.5 | < 0.5 | 5.22 | 4.39 | 4.09 | 4.15 | 4.17 | 5.53 | 4.32
33 | O=C(c1ccccc1)c1ccccc1 [Benzophenone] | 100 | > 200 | 5.86 | 6.01 | 5.94 | 5.89 | 5.79 | 5.66 | 4.65
34 | ClC(Cl)(Cl)c1ccccc1 [Benzotrichloride] | 200 | > 200 | 5.84 | 5.87 | 5.73 | 5.82 | 5.78 | 5.75 | 4.93
35 | O=c1[nH]c2ccc([S+]([O-])CCN3CCC(Cc4ccc(F)cc4)CC3)cc2o1 (stereo unspecified) [Besonprodil] | 200 | > 200 | 5.75 | 6 | 5.87 | 5.9 | 5.87 | 5.82 | 5.31
36 | c1ccc(-c2ccccc2)cc1 [Biphenyl] | 200 | 164 | 5.85 | 5.87 | 5.9 | 5.96 | 5.92 | 5.74 | 3.88
37 | CC(C)(c1ccc(O)cc1)c1ccc(O)cc1 [Bisphenol A] | 200 | > 200 | 5.83 | 5.86 | 5.99 | 5.88 | 5.95 | 5.96 | 5.46
38 | CCC(C)(c1ccc(O)cc1)c1ccc(O)cc1 [Bisphenol B] | 100 | 87.1 | 5.9 | 5.81 | 5.9 | 5.74 | 5.87 | 5.14 | 4.74
39 | O=C(Nc1ccccc1-c1ccc(Cl)cc1)c1cccnc1Cl [Boscalid] | 50 | 9.83 | 6.09 | 6 | 5.75 | 5.68 | 4.94 | 5.21 | 5.39
40 | O=[N+]([O-])C(Br)(CO)CO [Bronopol] | 50 | > 200 | 5.88 | 5.93 | 5.93 | 5.84 | 5.65 | 5.56 | 4.95
41 | CC(C)N1C(=O)N(c2ccccc2)CS/C1=N\C(C)(C)C [Buprofezin] | 200 | 181 | 5.88 | 5.75 | 5.68 | 5.8 | 5.93 | 6.04 | 3.51
42 | CCCCOCN(C(=O)CCl)c1c(CC)cccc1CC [Butachlor] | 200 | 13.8 | 5.93 | 6.1 | 6.07 | 6.12 | 6.05 | 6.08 | 5.44
43 | CC(C)N(Cc1ccccc1)C(=O)C(C)(C)C [Butam] | 200 | > 200 | 5.94 | 5.88 | 5.91 | 5.86 | 5.88 | 5.86 | 5.61
44 | CCC(C)Nc1c([N+](=O)[O-])cc(C(C)(C)C)cc1[N+](=O)[O-] (stereo unspecified) [Butralin] | 50 | 48.9 | 5.81 | 5.77 | 5.75 | 5.8 | 4.89 | 4.04 | 4.68
